Experimental data reported in US8865910B2 (priority 2010, dated 2014).
Like-named read-outs stand apart in the source and are kept apart here.

Columns and labels:
M. bovis BCG = experiment: microbe, parasite or virus in culture; format: cell-based, Mycobacterium bovis BCG; details: for inhibition at 100 µg/mL: Mycobacterium tuberculosis variant bovis BCG, BCG, 192 h
M. tuberculosis = experiment: Antitubercular activity against active and dormant bacilli of M. tuberculosis; format: cell-based, Mycobacterium tuberculosis H37Ra
M. tuberculosis H37Rv = details: BACTEC 12B medium; cited from earlier work
dormant tubercle bacilli = details: cited from earlier work
[1] = read-out: Antimycobacterial activity % inhibition at 100 μg/ml Aerobic/Active stage
[2] = read-out: Antimycobacterial activity % inhibition at 100 μg/ml Anearobic/Dormant stage

Structure (SMILES)	inhibition at 100 µg/mL (M. bovis BCG; [1])	inhibition at 100 µg/mL (M. bovis BCG; [2])	inhibition effects in the primary screening (M. tuberculosis H37Rv)	also measured
C=CCSc1n[nH]c(-c2ccc(Cl)cc2)n1 [compound 4f, 3-(allylthio)-5-(4-chlorophenyl)-1H-1,2,4-triazole]	98%	91%		Effectiveness against active and dormant stage of the bacilli (M. bovis BCG; M. bovis BCG, active and dormant stage): effective against both active as well as dormant stage; Effectiveness against active and dormant stage of the bacilli (M. tuberculosis): effective against both active as well as dormant stage
C#CCSc1nnc(-c2ccc([N+](=O)[O-])o2)s1 [2-(5-nitro-2-furyl)-5-(2-propynyl)thio-1,3,4-thiadiazole]			90%	
CC(C)(C)C(O)(CCc1ccc(Cl)cc1)Cn1cncn1 (stereo not drawn) [tebuconazole]				Effectiveness against dormant tubercle bacilli (dormant tubercle bacilli): not effective
O=[N+]([O-])c1cccc(CSc2nnc(-c3ccc([N+](=O)[O-])o3)s2)c1 [2-(5-nitro-2-furyl)-5-(3-nitrobenzyl)thio-1,3,4-thiadiazole]			90%	
O=[N+]([O-])c1ccc(-c2nnc(SCc3ccccc3[N+](=O)[O-])s2)o1 [2-(5-nitro-2-furyl)-5-(2-nitrobenzyl)thio-1,3,4-thiadiazole]			90%	
OC(Cn1cncn1)(Cn1cncn1)c1ccc(F)cc1F [Fluconazole]				Effectiveness against dormant tubercle bacilli (dormant tubercle bacilli): not effective
CCCSc1nnc(-c2ncc([N+](=O)[O-])n2C)s1 [2-(1-Methyl-5-nitro-1H-imidazol-2-yl)-5-(n-propyl)thio-1,3,4-thiadiazole]			90%	
C=CCSc1nc(-c2ccc(OC)cc2)nn1CC=C [6e, 1-allyl-5-(allylthio)-3-(4-methoxyphenyl)-1H-1,2,4-triazole]	88%	83%		
O=[N+]([O-])c1ccc(CSc2nnc(-c3ccc([N+](=O)[O-])o3)s2)cc1 [2-(5-nitro-2furyl)-5-(4-nitrobenzyl)thio-1,3,4-thiadiazole]			90%	
Cc1n[nH]c(SCc2cn(Cc3ccccc3)nn2)n1 [1b]	10%	14%		
